Laboratory results as given in patent publication EP0042596B1, “Novel adenine nucleoside derivatives, their preparation and pharmaceutical compositions containing them” (REGENTS OF THE UNIVERSITY OF MINNESOTA, priority 1980, dated 1981).
Converted amounts (≈) assume the structure as drawn.

Tests used:
[1] = Solubility in water at 37°C; format: physicochemical; details: at 37°C in water
[2] = i.p.
[3] = tested on: herpes simplex virus type 2; experiment: Genital herpes infection in female guinea pigs, suppression of lesion development (intravaginal agarose gel treatment); format: in vivo; details: for animals with lesions: 5% vidarabine formulation in 0.8% agarose gel
Description: The antiviral efficacy of these compounds in the treatment of genital infections in female guinea pigs was determined, the infecting virus being herpes simplex virus […]. The in vivo efficacy was measured in terms of the effect of these compounds in suppressing lesion development induced by the infecting virus. The incidence of lesions for virus-infected animals treated with the test compound was measured and compared with the results obtained for virus-infected control animals treated with placebo, or with the results obtained for untreated virus-infected animals. In the control group of animals small lesions usually appeared 3 to 4 days following infection, the virus-induced lesions reaching a maximum severity around 7 days postinfection this peak being followed by scab formation and then healing. In each case the test animals were infected by intravaginal inoculation with the herpes simplex virus type 2 in 0.1 ml of cell culture medium. 0.1 ml of a 0.8% agarose gel containing the test compound at the stated concentration was then administered intravaginally, treatment commencing (unless otherwise stated) 3 hours postinfection and the test compound being administered 3 times daily for 7 days. […] For the results given in Table 2, drug administration was commenced 6 hours postinfection and the test compound administered three times daily for 5 days.

For `COCC(=O)OC[C@H]1C[C@@H](n2cnc3c(N)ncnc32)[C@@H](O)[C@@H]1O` (racemic) [Compound B, 9-[2α,3β-dihydroxy-4α(methoxyacetoxymethyl)cyclopent-1 α-yl]adenine], the solubility [1] was 75 mg/mL (≈ 222 mM), the signs of toxicity ([2]; highest dose tested of 750 mg/kg) was “no signs of toxicity at all” and the “animals developed virus-induced lesions” value ([3]; administration commenced 6 hours postinfection, three times daily for 5 days, controls 60-90%) was 33%.
With `Nc1ncnc2c1ncn2[C@@H]1C[C@H](CO)[C@@H](O)[C@@H]1O` (racemic) [cyclaradine, 9 - [2α,3β-dihydroxy - 4α - (hydroxymethyl)cyclopent - 1 a - yl] - adenine] the solubility [1] was 1 mg/mL (≈ 3.77 mM), the lethality ([2]; dose of 900 mg/kg) was “not lethal” and the “test animals had lesions” value ([3]; day 7 postinfection, concentration 3%) was 100%. For the same compound, the “test animals had lesions” value ([3]; day 7 postinfection, concentration 10%) was 100%.
In the case of `COCC(=O)OC[C@H]1O[C@@H](n2cnc3c(N)ncnc32)[C@@H](O)[C@@H]1O` [Compound A, 9-s-D-Arabinofuranosyladenine-5'-methoxyacetate], the lesion formation ([3]; concentration of 15% in 0.8% agarose gel, intravaginal, start 3 hours postinfection, 3 times daily for 7 days) is reported as “completely suppressed lesion formation”.
For `Nc1ncnc2c1ncn2[C@@H]1O[C@H](CO)[C@@H](O)[C@@H]1O` [vidarabine, 9-(β-D-arabinofuranosyl)-adenine], the animals with lesions ([3]; day 4 postinfection) was 50% and the animals with lesions ([3]; day 7 postinfection) was 80%.
